Experimental data as given in US12134610B2, “Somatostatin subtype-2 receptor (SST2R) targeted therapeutics and uses thereof” (priority 2022, dated 2024).
Starred links: 1 amine or outer side, 2 acyl side, 3 side chain; linkers in the order of their positions; H or OH if unused. Non-standard residues stand in square brackets, D forms with d. Residues, ends and D or L forms follow the SMILES beside them. *: point of attachment. X4 = Cc1cc(F)cc(-c2cnc(NCCNC(=O)CCOCCOCCOCCOCCC(=O)*)c(-c3nc4ccc(Cl)cc4[nH]3)c2N2CCC(N)CC2)c1; X1 = Cc1cc(F)cc(-c2cnc(NCCNC(=O)CCOCCC(=O)*)c(-c3nc4ccc(Cl)cc4[nH]3)c2N2CCC(N)CC2)c1; Dolaproine = CO[C@@H]([C@@H]1CCCN1)[C@@H](C)C(=O)O; Dil = CC[C@H](C)[C@H](NC)[C@@H](CC(=O)O)OC; PABC = O=C(OCc1ccc(N[*:1])cc1)[*:2]; X2 = C[C@@H](N*)[C@@H](O)c1ccccc1; Cit = NC(=O)NCCC[C@H](N)C(=O)O; NMeV = CN[C@H](C(=O)O)C(C)C

Key:
Type in all cases: cell-based
[1] = test system: NCI-H524 (ATCC) human small cell lung cancer cells; settings: 2 h
Description: SMDCs of the present invention were assessed in an in vitro assay evaluating the inhibition of cell proliferation. NCI-H524 (ATCC) human small cell lung cancer cells were plated in 96-well V-bottom plates (Costar) at a concentration of 5,000 cells/well. 24 h later, the cells were treated for 2 h with a SMDC. SMDC starting dose was 1 uM and two-fold serial dilutions were done for a total of 11 points. After 2 h of treatment, cells were spun down, and the drug-containing media was removed, and fresh complete media was added and used to resuspend the cells, which were spun again. After removal of the media, the cells were resuspended in complete medium and incubated for an additional 70 h. Cell proliferation was assessed using the CellTiter Glo Assay according to the standard protocol (Promega). Luminescence was measured using a TECAN plate reader. Percent proliferation inhibition was calculated using the following formula: % inhibition=(Luminescence Control−Luminescence Treatment)/Luminescence Control*100. IC50 curves were generated using the nonlinear regression analysis (four-parameter) with GraphPad Prism 9.

[2] = molecular target: T1, human somatostatin receptor subtype 2 (Homo sapiens, UniProt P30874); assay: Functional cAMP assay for SSTR2 agonists (HTRF) in CHO-K1 cells; settings: CHO-K1 cells stably expressing human SST2, 20 min; read-out: hSST2 cAMP Avg EC50
T1 construct: expressed in transfected cells
Method in brief: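 Agonism scored as loss of NKH477 (1.6 μM)-driven cAMP, with IBMX present, after 20 min, 37° C. exposure of stably transfected CHO-K1 cells to compound dilutions (typically 0-10,000 nM). Lysates read by time-resolved FRET; cAMP interpolated from standard curve and EC50 derived.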

[3] = molecular target: T2, SST2 (Homo sapiens, UniProt P30874); assay: PathHunter CHO-K1 SST2 internalization assay; settings: PathHunter CHO-K1 SST2, 90 min; read-out: Internalization EC50
T2 construct: host or cells: PathHunter CHO-K1 SST2 cells
Description: SMDCs of the present invention were assessed in vitro using the human PathHunter CHO-K1 SST2 β-arrestin2 and PathHunter CHO-K1 SST2 Internalization Assays from DiscoverX. The CHO-K cells were seeded in 20 μLs of cell culture medium in a white-walled 384 well tissue culture-compatible plate at a density of 2500 cells/well. After a 48-hour incubation, cells were treated with 5 μLs of a 1:3 serially diluted SST2 SMDC prepared at 5× concentration with a final top compound concentration of 10 uM for 90 min at 37 C and in 5% CO2. 11 dilutions were tested as well as one treatment that was compound free. After incubation, the media containing treatments were discarded and 20 μL of a working solution of Beta-Glo from Promega Beta-Glo Assay System was added to each well. The plate was then incubated for 60 min at room temperature in the dark. Luminescence was measured using a Tecan plate reader. IC50 curves were generated using the nonlinear regression analysis (four-parameters) with GraphPad Prism 9. Results were the average of duplicates and are corrected for background.

T1 sequence (P30874 whole entry): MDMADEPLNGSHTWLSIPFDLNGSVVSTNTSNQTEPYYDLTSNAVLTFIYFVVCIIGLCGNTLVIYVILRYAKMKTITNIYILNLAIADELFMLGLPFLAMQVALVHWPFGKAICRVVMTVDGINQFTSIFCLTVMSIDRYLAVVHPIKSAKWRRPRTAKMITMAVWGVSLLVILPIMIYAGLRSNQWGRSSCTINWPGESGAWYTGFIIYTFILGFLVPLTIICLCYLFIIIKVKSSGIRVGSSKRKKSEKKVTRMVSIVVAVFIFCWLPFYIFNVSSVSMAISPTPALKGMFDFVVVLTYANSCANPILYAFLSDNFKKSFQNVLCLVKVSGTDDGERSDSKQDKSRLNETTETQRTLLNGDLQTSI
T2 sequence (P30874 whole entry): as above

## CC[C@H](C)[C@@H]([C@@H](CC(=O)N1CCC[C@H]1[C@H](OC)[C@@H](C)C(=O)N[C@H](C)[C@@H](O)c1ccccc1)OC)N(C)C(=O)[C@@H](NC(=O)[C@H](C(C)C)N(C)C(=O)OCc1ccc(NC(=O)[C@H](CCCNC(N)=O)NC(=O)[C@@H](NC(=O)[C@H](CCC(=O)O)NC(=O)[C@H](CCC(=O)O)NC(=O)CCOCCOCCOCCOCCC(=O)NCCNc2ncc(-c3cc(C)cc(F)c3)c(N3CCC(N)CC3)c2-c2nc3ccc(Cl)cc3[nH]2)C(C)C)cc1)C(C)C [Compound 110] (X4-EEV[Cit][PABC][NMeV]V[Dil][Dolaproine]-X2)
[1]
  EC50: 110 nM
[2]
  EC50: 0.57 nM
[3]
  EC50: 13 nM

## CC[C@H](C)[C@@H]([C@@H](CC(=O)N1CCC[C@H]1[C@H](OC)[C@@H](C)C(=O)N[C@H](C)[C@@H](O)c1ccccc1)OC)N(C)C(=O)[C@@H](NC(=O)[C@H](C(C)C)N(C)C(=O)OCc1ccc(NC(=O)[C@H](CCCNC(N)=O)NC(=O)[C@@H](NC(=O)[C@H](CCC(=O)O)NC(=O)CCOCCOCCOCCOCCC(=O)NCCNc2ncc(-c3cc(C)cc(F)c3)c(N3CCC(N)CC3)c2-c2nc3ccc(Cl)cc3[nH]2)C(C)C)cc1C(=O)NCCN)C(C)C [Compound 47]
[1]
  EC50: 18.7 nM
[2]
  EC50: 0.091 nM
[3]
  EC50: 9 nM

## CC[C@H](C)[C@@H]([C@@H](CC(=O)N1CCC[C@H]1[C@H](OC)[C@@H](C)C(=O)N[C@H](C)[C@@H](O)c1ccccc1)OC)N(C)C(=O)[C@@H](NC(=O)[C@H](C(C)C)N(C)C(=O)OCc1ccc(NC(=O)[C@H](CCCNC(N)=O)NC(=O)[C@@H](NC(=O)CCOCCOCCOCCOCCC(=O)NCCNc2ncc(-c3cc(C)cc(F)c3)c(N3CCC(N)CC3)c2-c2nc3ccc(Cl)cc3[nH]2)C(C)C)cc1C(N)=O)C(C)C [Compound 123]
[1]
  EC50: 18 nM
[2]
  EC50: 0.13 nM
[3]
  EC50: 7 nM

## CC[C@H](C)[C@@H]([C@@H](CC(=O)N1CCC[C@H]1[C@H](OC)[C@@H](C)C(=O)N[C@H](C)[C@@H](O)c1ccccc1)OC)N(C)C(=O)[C@@H](NC(=O)[C@H](C(C)C)N(C)C(=O)OCc1ccc(NC(=O)[C@H](CCCNC(N)=O)NC(=O)[C@@H](NC(=O)[C@H](CS(N)(=O)=O)NC(=O)CCOCCC(=O)NCCNc2ncc(-c3cc(C)cc(F)c3)c(N3CCC(N)CC3)c2-c2nc3ccc(Cl)cc3[nH]2)C(C)C)cc1C(=O)NCCN)C(C)C [Compound 159]
[1]
  EC50: 2.6 nM
[2]
  EC50: 0.3 nM
[3]
  EC50: 10 nM

## CC[C@@H](C)[C@H]([C@H](CC(=O)N1CCC[C@@H]1[C@@H](OC)[C@H](C)C(=O)N[C@@H](C)[C@H](O)c1ccccc1)OC)N(C)C(=O)C(NC(=O)[C@@H](C(C)C)N(C)C(=O)OCc1ccc(NC(=O)[C@H](CCCNC(N)=O)NC(=O)[C@@H](NC(=O)CCOCCNC(=O)[C@H](CS(=O)(=O)O)NC(=O)CCOCCOCCOCCOCCC(=O)NCCNc2ncc(-c3cc(C)cc(F)c3)c(N3CCC(N)CC3)c2-c2nc3ccc(Cl)cc3[nH]2)C(C)C)cc1)C(C)C (stereo partly drawn) [Compound 44]
[1]
  EC50: 101 nM
[2]
  EC50: 0.089 nM
[3]
  EC50: 17.2 nM

## CC[C@H](C)[C@@H]([C@@H](CC(=O)N1CCC[C@H]1[C@H](OC)[C@@H](C)C(=O)N[C@H](C)[C@@H](O)c1ccccc1)OC)N(C)C(=O)[C@@H](NC(=O)[C@H](C(C)C)N(C)C(=O)OCc1ccc(NC(=O)[C@H](CCCNC(N)=O)NC(=O)[C@@H](NC(=O)CCOCCC(=O)NCCNc2ncc(-c3cc(C)cc(F)c3)c(N3CCC(N)CC3)c2-c2nc3ccc(Cl)cc3[nH]2)C(C)C)cc1C(N)=O)C(C)C [Compound 122]
[1]
  EC50: 7.9 nM
[2]
  EC50: 0.18 nM
[3]
  EC50: 3.8 nM

## CC[C@H](C)[C@@H]([C@@H](CC(=O)N1CCC[C@H]1[C@H](OC)[C@@H](C)C(=O)N[C@H](C)[C@@H](O)c1ccccc1)OC)N(C)C(=O)[C@@H](NC(=O)[C@H](C(C)C)N(C)C(=O)OCc1ccc(NC(=O)[C@H](C)NC(=O)[C@@H](NC(=O)[C@H](CCC(=O)O)NC(=O)CCOCCC(=O)NCCNc2ncc(-c3cc(C)cc(F)c3)c(N3CCC(N)CC3)c2-c2nc3ccc(Cl)cc3[nH]2)C(C)C)c(O[C@@H]2O[C@H](C(=O)O)[C@@H](O)[C@H](O)[C@H]2O)c1)C(C)C [Compound 145]
[1]
  EC50: 150 nM
[2]
  EC50: 0.25 nM
[3]
  EC50: 7.9 nM

## CC[C@H](C)[C@@H]([C@@H](CC(=O)N1CCC[C@H]1[C@H](OC)[C@@H](C)C(=O)N[C@H](C)[C@@H](O)c1ccccc1)OC)N(C)C(=O)[C@@H](NC(=O)[C@H](C(C)C)N(C)C(=O)OCc1ccc(NC(=O)[C@H](CCCNC(N)=O)NC(=O)[C@@H](NC(=O)[C@H](CCC(N)=O)NC(=O)CCOCCC(=O)NCCNc2ncc(-c3cc(C)cc(F)c3)c(N3CCC(N)CC3)c2-c2nc3ccc(Cl)cc3[nH]2)C(C)C)cc1C(=O)NC)C(C)C [Compound 54]
[1]
  EC50: 17 nM
[2]
  EC50: 0.17 nM
[3]
  EC50: 10 nM

## CC[C@H](C)[C@@H]([C@@H](CC(=O)N1CCC[C@H]1[C@H](OC)[C@@H](C)C(=O)N[C@H](C)[C@@H](O)c1ccccc1)OC)N(C)C(=O)[C@@H](NC(=O)[C@H](C(C)C)N(C)C(=O)OCc1ccc(NC(=O)[C@H](CCCNC(N)=O)NC(=O)[C@@H](NC(=O)CCOCCC(=O)NCCNc2ncc(-c3cc(C)cc(F)c3)c(N3CCC(N)CC3)c2-c2nc3ccc(Cl)cc3[nH]2)C(C)C)c(O[C@@H]2O[C@H](CO)[C@@H](O)[C@H](O)[C@H]2O)c1)C(C)C [Compound 134]
[1]
  EC50: 3.8 nM
[2]
  EC50: 0.18 nM
[3]
  EC50: 4.6 nM

## CCC(C)C(C(CC(=O)N1CCCC1C(OC)C(C)C(=O)NC(C)C(O)c1ccccc1)OC)N(C)C(=O)C(NC(=O)C(C(C)C)N(C)C(=O)OCc1ccc(NC(=O)[C@H](CCCNC(N)=O)NC(=O)[C@@H](NC(=O)CCOCCOCCOCCOCCC(=O)NCCNc2ncc(-c3cc(C)cc(F)c3)c(N3CCC(NC)CC3)c2-c2nc3ccc(Cl)cc3[nH]2)C(C)C)cc1)C(C)C (stereo in doubt) [Compound 41]
[1]
  EC50: 27.8 nM
[2]
  EC50: 0.48 nM
[3]
  EC50: 24.6 nM

## CC[C@H](C)[C@@H]([C@@H](CC(=O)N1CCC[C@H]1[C@H](OC)[C@@H](C)C(=O)N[C@H](C)[C@@H](O)c1ccccc1)OC)N(C)C(=O)[C@@H](NC(=O)[C@H](C(C)C)N(C)C(=O)OCc1ccc(NC(=O)[C@H](CCCNC(N)=O)NC(=O)[C@@H](NC(=O)CCOCCNCCNc2ncc(-c3cc(C)cc(F)c3)c(N3CCC(N)CC3)c2-c2nc3ccc(Cl)cc3[nH]2)C(C)C)cc1)C(C)C [Compound 84]
[1]
  EC50: 24 nM
[2]
  EC50: 0.51 nM
[3]
  EC50: 9.7 nM

## CC[C@H](C)[C@@H]([C@@H](CC(=O)N1CCC[C@H]1[C@H](OC)[C@@H](C)C(=O)N[C@H](C)[C@@H](O)c1ccccc1)OC)N(C)C(=O)[C@@H](NC(=O)[C@H](C(C)C)N(C)C(=O)OCc1ccc(O[C@@H]2O[C@H](C(=O)O)[C@@H](O)[C@H](O)[C@H]2O)c(NC(=O)[C@H](CCCNC(N)=O)NC(=O)[C@@H](NC(=O)CCOCCC(=O)NCCNc2ncc(-c3cc(C)cc(F)c3)c(N3CCC(N)CC3)c2-c2nc3ccc(Cl)cc3[nH]2)C(C)C)c1)C(C)C [Compound 147]
[1]
  EC50: 3.2 nM
[2]
  EC50: 0.14 nM
[3]
  EC50: 2.5 nM

## CC[C@H](C)[C@@H]([C@@H](CC(=O)N1CCC[C@H]1[C@H](OC)[C@@H](C)C(=O)N[C@H](C)[C@@H](O)c1ccccc1)OC)N(C)C(=O)[C@@H](NC(=O)[C@H](C(C)C)N(C)C(=O)OCc1ccc(NC(=O)[C@H](CCCNC(N)=O)NC(=O)[C@@H](NC(=O)[C@H](CCC(=O)O)NC(=O)[C@H](CCC(=O)O)NC(=O)CCOCCC(=O)NCCNc2ncc(-c3cc(C)cc(F)c3)c(N3CCC(N)CC3)c2-c2nc3ccc(Cl)cc3[nH]2)C(C)C)cc1)C(C)C [Compound 98] (X1-EEV[Cit][PABC][NMeV]V[Dil][Dolaproine]-X2)
[1]
  EC50: 120 nM
[2]
  EC50: 0.25 nM
[3]
  EC50: 2.9 nM

## CC[C@H](C)[C@@H]([C@@H](CC(=O)N1CCC[C@H]1[C@H](OC)[C@@H](C)C(=O)N[C@H](C)[C@@H](O)c1ccccc1)OC)N(C)C(=O)[C@@H](NC(=O)[C@H](C(C)C)N(C)C(=O)OCc1ccc(O[C@@H]2O[C@H](C(=O)O)[C@@H](O)[C@H](O)[C@H]2O)c(NC(=O)[C@H](C)NC(=O)[C@@H](NC(=O)CCOCCC(=O)NCCNc2ncc(-c3cc(C)cc(F)c3)c(N3CCC(N)CC3)c2-c2nc3ccc(Cl)cc3[nH]2)C(C)C)c1)C(C)C [Compound 148]
[1]
  EC50: 7.9 nM
[2]
  EC50: 0.086 nM
[3]
  EC50: 4.5 nM
